Experimental data as given in patent US6562803B2, “Hair-growing agent” (Kyowa Hakko Kogyo Co., Ltd., priority 2001, dated 2003).

Test system: mouse hair follicle epithelial cells
Experiment: Cell growth-promoting effect on cultured mouse hair follicle epithelial cells (MTT)
Type: cell-based
Conditions: cultured 5 days, absorbance at 570 nm, control DMSO alone = 100
Description: The skin on the back of a 4-days-old C3H mouse (Charles River Japan, Inc.) was cut off and treated with MEM (Eagle's Minimum Essential Medium) containing 500 units/ml Dispase (Godo Shusei Co., Ltd.) and 5% fetal calf serum (FCS) at 4° C. for 16 hours.
The dermis suspension was filtered through a 212-μm nylon mesh (Nippon Rikagaku Kikai Co., Ltd.) and the filtrate was centrifuged at 1000 rpm for 5 minutes to obtain pellets containing hair follicle tissue. To the pellets was added calcium/magnesium-free PBS (Dulbecco's Phosphate-Buffered Saline) and the pellets were suspended therein using a pipette. The resulting suspension was allowed to stand for 15 minutes to precipitate hair follicle tissue. The same procedure as above (addition of calcium/magnesium-free PBS, suspending by use of a pipette, and precipitation by allowing the suspension to stand for 15 minutes) was repeated three times using the obtained hair follicle tissue.
To the resulting mixture was added DMEM containing 10% FCS to prepare a hair follicle tissue cell suspension having a density of 3×10^5 cells/ml. The hair follicle tissue cell suspension was put into wells of a 24-well collagen-coated plate (Iwaki Glass Co., Ltd.) in an amount of 1 ml/well, followed by culturing in 5% CO2 at 37° C. for 24 hours.
During the culturing, the medium was replaced with a fresh one every other day.
The degree of cell growth was measured according to the method using MTT [3-(4,5-dimethylthiazol-2-yl)-2,5-diphenyl tetrazolium bromide]
To each well of the 24-well microplate (2 cm^2/well) was added a PBS solution of MTT (5 mg/ml) in an amount of 1/10 by volume based on 1 ml of the culture. The plate was shaken to make the mixture homogeneous, followed by culturing in 5% CO2 at 37° C. for 4 hours. Four hours later, the culture was sucked and 1 ml of a 0.04 mol/l solution of HCl in isopropyl alcohol was added to each well to completely dissolve formazan formed in the wells.
The degree of cell growth was determined by measuring the absorbance at 570 nm based on that at 650 nm as a control.

| Compound | Relative cell growth rate based on the control as 100 (30 μmol/l) | Relative cell growth rate based on the control as 100 (1 μmol/l) |
| --- | --- | --- |
| Cc1c(C)c2c(c(C)c1O)CCC(C)(CCCC(C)CCCC(C)CCCC(C)C)O2 (racemic) [dl-α-Tocopherol, dl-α-tocopherol] | 178 |  |
| Oc1cc(O)c2c(c1)O[C@H](c1ccc(O)c(O)c1)[C@H](O)[C@H]2c1c(O)cc(O)c2c1O[C@H](c1ccc(O)c(O)c1)[C@H](O)C2 [Procyanidin B-2, epicatechin-(4β→8)-epicatechin] | 295 |  |
| CCCCCCCC/C=C\CCCCCCCC(=O)OCC(COP(=O)(O)O)OC(C)=O (stereo not drawn) [1-O-oleoyl-2-O-acetylglyceryl-3-phosphoric Acid] |  | 327 |
